Data: patent publication EP0935964A1, “Pharmaceutical compositions containing NSAIDs and piperine” (PANACEA BIOTEC LIMITED, priority 1998, dated 1999)
Like-named read-outs stand apart in the source and are kept apart here.

Tests used:
[1] = formulations containing Piperine compared with those which did not contain Piperine; cited from earlier work
[2] = rats, oral, Nimesulide 10 mg/kg (with Piperine 10mg/kg in the combination), n = 5
Method: The single test point pharmacokinetic studies were performed in two groups of rats. […] Rats were sacrificed at 90 minutes. post treatment and blood samples were analysed by HPLC.

plasma proteins = details: cited from earlier work
[3] = Plasma levels of Nimesulide in rats after oral administration of the compositions (Experiment I, HPLC); format: in vivo, albino rats
Method: The rats were housed 5 per cage with food and water provided ad libidum. On the day of experimentation the rats were randomised into ten batches of 5 rats each. Four groups were formed. […] Group II consisted of four batches of five rats each. […] Rats of batch I from Group II were sacrificed 60 minutes post treatment after Chloroform anaesthesia. […] Blood was collected from the rats from the ventricle into heparinised tubes. Group III consisted of one batch of 5 rats, which received only Piperine at a dose level of 1.0mg/kg body wt. […] Blood was collected from the rats from the ventricle into heparinised tubes. Group IV consisted of 4 batches of 5 rats each. […] Rats of batch 1 from Group IV were sacrificed 60 minutes post treatment after Chloroform anaesthesia. […] Blood was collected from the rats from the ventricle into heparinised tubes. The blood samples were centrifuged at 3700 rpm and the plasma separated. […] Extracted benzene was evaporated in a water bath at 95°C and reconstituted with 100 µl of mobile phase and 10 µl was injected into the HPLC. Waters HPLC fitted with C18 µ Bondapack was used along with Waters UV-Vis detector (254nm). […] Unpaired student T test was applied on the data. Level of significance was fixed at p < 0.05.

[4] = test system: acetic acid induced writhing; details: mice, n = 8, Nimesulide 10mg/kg
Method: Pharmacokinetic studies were also performed in rats. […] The study design for acetic acid induced writhing in mice was as follows : Table II

[5] = in vivo; cited from earlier work
[6] = cited from earlier work
[7] = cited from earlier work; remark: listed apart in the source

## NNC(=O)c1ccncc1 [Isoniazid]
[1]
  mean increase in AUC: 131%

## CS(=O)(=O)Nc1ccc([N+](=O)[O-])cc1Oc1ccccc1 [Nimesulide, N-(4-nitro, 2-phenoxyphenyl) methanesulfonamide]
[2]
  Plasma concentration (90 min post treatment): 8818 µg/mL
Plasma proteins
  bound to plasma proteins: 99%
[3]; Nimesulide alone 1.8 mg/kg, 240 min post treatment
  Concentration of the drug in plasma: 4.6 ± 1.4 kg/mL
[3]; oral suspension, Nimesulide 1.8 mg/kg (with Piperine 1.0 mg/kg in the combination), 60 min. post treatment
  Plasma levels of Nimesulide: 5800 ± 1700 µg/mL
[3]; oral suspension, Nimesulide 1.8 mg/kg (with Piperine 1.0 mg/kg in the combination), 120 min. post treatment
  Plasma levels of Nimesulide: 7900 ± 2300 µg/mL
[3]; oral suspension, Nimesulide 1.8 mg/kg (with Piperine 1.0 mg/kg in the combination), 240 min. post treatment
  Plasma levels of Nimesulide: 4600 ± 1400 µg/mL
[3]; oral suspension, Nimesulide 1.8 mg/kg (with Piperine 1.0 mg/kg in the combination), 360 min. post treatment
  Plasma levels of Nimesulide: 2200 ± 1100 µg/mL
[4]
  % PROTECTION: 54%
[5]
  dose excreted unchanged in the urine: 1-3%

## O=C(/C=C/C=C/c1ccc2c(c1)OCO2)N1CCCCC1 [Piperine, (E, E) 1-[5-(1,3-benzodioxyl-5-yl)-1-oxo-2,4-pentadenyl] piperidine]
[6]; in benzene, chloroform, ether, ethyl acetate, dichloromethane, alcohol, acetic acid
  solubility: soluble
[6]; in water, pet. ether
  solubility: insoluble
[7]
  pKa: 12.22
[3]; only Piperine 1.0 mg/kg, no Nimesulide, column 120 min.
  Plasma levels of Nimesulide: Nil

## NC(=O)c1cnccn1 [Pyrazinamide]
[1]
  mean increase in AUC: 36%

## CO[C@H]1/C=C/O[C@@]2(C)Oc3c(C)c(O)c4c(O)c(c(/C=N/N5CCN(C)CC5)c(O)c4c3C2=O)NC(=O)/C(C)=C\C=C\[C@H](C)[C@H](O)[C@@H](C)[C@@H](O)[C@@H](C)[C@H](OC(C)=O)[C@@H]1C [Rifampicin]
[1]
  mean increase in AUC: 37.6%
